Laboratory results as given in ChEMBL document CHEMBL4837196, “Cytotoxic and Antiangiogenetic Xanthones Inhibiting Tumor Proliferation and Metastasis from Garcinia xipshuanbannaensis” (J Nat Prod, 2021).
Calls of active or inactive are those of the source. The calls are words filed in the database; no cut-off is given here.

How the values were obtained:
HeLa [1] = assay: Induction of reactive oxygen species generation in human HeLa cells assessed as increase in ROS level at 2.5 to 30 uM measured after 48 hrs by DCFH-DA staining based flow cytometric analysis; format: functional, cell-based; settings: dose 2.5-30 µM
HeLa [2] = assay: Cytotoxicity against human HeLa cells assessed as inhibition of cell proliferation incubated for 48 hrs by MTT assay; format: functional, cell-based
Danio rerio [3] = organism: Danio rerio; assay: Antiangiogenesis activity in Tg(fli1:EGFP) transgenic zebrafish embryo assessed as change in intersegmental vessels length at 48 uM measured after 48 hrs by confocal microscopy analysis (reference value: 3233.3 micrometer); format: functional
[4] = target: Signal transducer and activator of transcription 3 (Homo sapiens) (UniProt P40763); assay: Inhibition of STAT3 activation in human HeLa cells measured after 12 hrs by western blot analysis; format: cell-based
HeLa [5] = assay: Induction of apoptosis in human HeLa cells assessed as viable cells at 12 uM measured after 48 hrs by Annexin V-FITC/propidium iodide staining based flow cytometric analysis (reference value: 83.1 %); format: functional; settings: read-out: Activity
[6] = target: Signal transducer and activator of transcription 3 (Homo sapiens) (UniProt P40763); assay: Inhibition of STAT3 phosphorylation in human HeLa cells measured after 12 hrs by western blot analysis; format: cell-based
HeLa [7] = assay: Induction of apoptosis in human HeLa cells assessed as necrotic cells at 6 uM measured after 48 hrs by Annexin V-FITC/propidium iodide staining based flow cytometric analysis (reference value: 1.32 %); format: functional
HeLa [8] = assay: Induction of apoptosis in human HeLa cells assessed as late apoptotic cells at 6 uM measured after 48 hrs by Annexin V-FITC/propidium iodide staining based flow cytometric analysis (reference value: 12.2 %); format: functional
HeLa [9] = assay: Induction of apoptosis in human HeLa cells assessed as late apoptotic cells at 24 uM measured after 48 hrs by Annexin V-FITC/propidium iodide staining based flow cytometric analysis (reference value: 12.2 %); format: functional
HeLa [10] = assay: Induction of apoptosis in human HeLa cells assessed as early apoptotic cells at 6 uM measured after 48 hrs by Annexin V-FITC/propidium iodide staining based flow cytometric analysis (reference value: 3.34 %); format: functional
HeLa [11] = assay: Induction of apoptosis in human HeLa cells assessed as late apoptotic cells at 12 uM measured after 48 hrs by Annexin V-FITC/propidium iodide staining based flow cytometric analysis (reference value: 12.2 %); format: functional
HeLa [12] = assay: Induction of apoptosis in human HeLa cells assessed as early apoptotic cells at 24 uM measured after 48 hrs by Annexin V-FITC/propidium iodide staining based flow cytometric analysis (reference value: 3.34 %); format: functional
HeLa [13] = assay: Cell cycle arrest in human HeLa cells assessed as accumulation at S phase at 6 uM measured after 48 hrs by PI-staining based flow cytometric analysis (reference value: 51.39%); format: functional
HeLa [14] = assay: Cell cycle arrest in human HeLa cells assessed as accumulation at G2 phase at 12 uM measured after 48 hrs by PI-staining based flow cytometric analysis (reference value: 8.58%); format: functional
HeLa [15] = assay: Cell cycle arrest in human HeLa cells assessed as accumulation at S phase at 12 uM measured after 48 hrs by PI-staining based flow cytometric analysis (reference value: 51.39%); format: functional
HepG2 [16] = assay: Cytotoxicity against human HepG2 cells assessed as inhibition of cell proliferation incubated for 48 hrs by MTT assay; format: functional, cell-based; settings: HepG2, 48 h
HeLa [17] = assay: Induction of apoptosis in human HeLa cells assessed as viable cells at 24 uM measured after 48 hrs by Annexin V-FITC/propidium iodide staining based flow cytometric analysis (reference value: 83.1 %); format: functional; settings: read-out: Activity
HeLa [18] = assay: Cell cycle arrest in human HeLa cells assessed as accumulation at G2 phase at 24 uM measured after 48 hrs by PI-staining based flow cytometric analysis (reference value: 8.58%); format: functional
HeLa [19] = assay: Induction of apoptosis in human HeLa cells assessed as viable cells at 6 uM measured after 48 hrs by Annexin V-FITC/propidium iodide staining based flow cytometric analysis (reference value: 83.1 %); format: functional; settings: read-out: Activity
HeLa [20] = assay: Cell cycle arrest in human HeLa cells assessed as accumulation at G0/G1 phase at 12 uM measured after 48 hrs by PI-staining based flow cytometric analysis (reference value: 40.03%); format: functional
HeLa [21] = assay: Induction of apoptosis in human HeLa cells assessed as necrotic cells at 24 uM measured after 48 hrs by Annexin V-FITC/propidium iodide staining based flow cytometric analysis (reference value: 1.32 %); format: functional
HeLa [22] = assay: Cell cycle arrest in human HeLa cells assessed as accumulation at G2 phase at 6 uM measured after 48 hrs by PI-staining based flow cytometric analysis (reference value: 8.58%); format: functional
HeLa [23] = assay: Cell cycle arrest in human HeLa cells assessed as accumulation at G0/G1 phase at 24 uM measured after 48 hrs by PI-staining based flow cytometric analysis (reference value: 40.03%); format: functional
HeLa [24] = assay: Cell cycle arrest in human HeLa cells assessed as accumulation at S phase at 24 uM measured after 48 hrs by PI-staining based flow cytometric analysis (reference value: 51.39%); format: functional
HeLa [25] = assay: Cell cycle arrest in human HeLa cells assessed as accumulation at G0/G1 phase at 6 uM measured after 48 hrs by PI-staining based flow cytometric analysis (reference value: 40.03%); format: functional
[26] = Effect on STAT3 protein level in human HeLa cells at 6 to 24 uM by Western blotting; format: ADME, cell-based; settings: dose 6-24 µM
Danio rerio [27] = organism: Danio rerio; assay: Antiangiogenesis activity in Tg(fli1:EGFP) transgenic zebrafish embryo assessed as change in intersegmental vessels length at 12 uM measured after 48 hrs by confocal microscopy analysis (reference value: 3233.3 micrometer); format: functional
K562 = assay: Cytotoxicity against human K562 cells assessed as inhibition of cell proliferation incubated for 48 hrs by MTT assay; format: functional, cell-based; settings: K562, 48 h
HeLa [28] = assay: Induction of apoptosis in human HeLa cells assessed as necrotic cells at 12 uM measured after 48 hrs by Annexin V-FITC/propidium iodide staining based flow cytometric analysis (reference value: 1.32 %); format: functional
Danio rerio [29] = organism: Danio rerio; assay: Antiangiogenesis activity in Tg(fli1:EGFP) transgenic zebrafish embryo assessed as change in intersegmental vessels length at 24 uM measured after 48 hrs by confocal microscopy analysis (reference value: 3233.3 micrometer); format: functional
HeLa [30] = assay: Induction of apoptosis in human HeLa cells assessed as early apoptotic cells at 12 uM measured after 48 hrs by Annexin V-FITC/propidium iodide staining based flow cytometric analysis (reference value: 3.34 %); format: functional
HepG2 [31] = assay: Antitumour activity against CM-Dil labeled human HepG2 cells xenografted in AB zebrafish embryo assessed as retarded tumor growth measured after 48 hrs by confocal microscopy analysis; format: functional, cell-based; settings: dose 12-48 µM

Chain of Signal transducer and activator of transcription 3 (Homo sapiens) (P40763 whole entry): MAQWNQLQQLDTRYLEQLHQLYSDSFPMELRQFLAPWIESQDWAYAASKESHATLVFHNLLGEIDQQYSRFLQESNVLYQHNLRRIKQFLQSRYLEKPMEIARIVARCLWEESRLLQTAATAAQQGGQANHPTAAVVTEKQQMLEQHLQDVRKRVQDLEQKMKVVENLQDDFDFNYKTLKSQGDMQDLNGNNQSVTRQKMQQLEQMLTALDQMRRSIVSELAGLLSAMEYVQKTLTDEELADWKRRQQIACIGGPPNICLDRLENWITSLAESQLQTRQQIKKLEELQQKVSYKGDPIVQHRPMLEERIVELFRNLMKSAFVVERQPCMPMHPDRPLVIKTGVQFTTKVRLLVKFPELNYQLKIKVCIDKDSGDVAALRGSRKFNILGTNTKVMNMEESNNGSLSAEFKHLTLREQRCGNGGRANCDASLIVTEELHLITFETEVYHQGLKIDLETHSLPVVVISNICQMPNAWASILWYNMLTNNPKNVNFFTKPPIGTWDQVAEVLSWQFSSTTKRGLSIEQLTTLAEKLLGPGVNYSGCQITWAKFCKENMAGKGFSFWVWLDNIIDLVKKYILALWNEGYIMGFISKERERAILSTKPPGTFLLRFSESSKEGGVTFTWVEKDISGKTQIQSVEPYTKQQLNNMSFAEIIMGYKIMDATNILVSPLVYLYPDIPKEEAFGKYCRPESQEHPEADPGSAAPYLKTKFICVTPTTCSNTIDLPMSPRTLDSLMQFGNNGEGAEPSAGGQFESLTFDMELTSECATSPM

SMILES: COC(C)(C)CCc1c(O)c(O)cc2oc3c4c(c(CC=C(C)C)c(O)c3c(=O)c12)OC(C)(C)C=C4
- Activity (HeLa [1]): Active
- IC50 (HeLa [2]): 9.6 µM
- Activity (Danio rerio [3]): 1881.6 um
- inhibition [4]: Dose-Dependent Effect
- viability at 12 µM (HeLa [5]): 71.2%
- inhibition [6]: Active
- Activity (HeLa [7]): 1.72%
- Activity (HeLa [8]): 16.1%
- Activity (HeLa [9]): 24%
- Activity (HeLa [10]): 6.92%
- Activity (HeLa [11]): 18%
- Activity (HeLa [12]): 13.6%
- Activity (HeLa [13]): 38.09%
- Activity (HeLa [14]): 4.63%
- Activity (HeLa [15]): 29.59%
- IC50 (HepG2 [16]): > 10 µM
- viability at 24 µM (HeLa [17]): 58.1%
- Activity (HeLa [18]): 1.71%
- viability at 6 µM (HeLa [19]): 75.2%
- Activity (HeLa [20]): 65.78%
- Activity (HeLa [21]): 3.76%
- Activity (HeLa [22]): 6.58%
- Activity (HeLa [23]): 67.2%
- Activity (HeLa [24]): 31.09%
- Activity (HeLa [25]): 55.33%
- Activity [26]: Non-Toxic
- Activity (Danio rerio [27]): 2476.5 um
- IC50 (K562): > 10 µM
- Activity (HeLa [28]): 2.63%
- Activity (Danio rerio [29]): 2263.2 um
- Activity (HeLa [30]): 8.23%
- Activity (HepG2 [31]): Dose-Dependent Effect

SMILES: COc1cc([C@@H]2c3cc4c(cc3[C@@H](O[C@@H]3O[C@@H]5CO[C@@H](C)O[C@H]5[C@H](O)[C@H]3O)[C@H]3COC(=O)[C@H]23)OCO4)cc(OC)c1O
- Activity (HepG2 [31]): Dose-Dependent Effect

SMILES: COC(=O)C[C@](O)(CCCC(C)(C)O)C(=O)O[C@@H]1C(OC)=C[C@]23CCCN2CCc2cc4c(cc2[C@H]13)OCO4 [OMACETAXINE MEPESUCCINATE]
- IC50 (HeLa [2]): 0.4 µM
